Experimental data from US11959094B2, “Methods and compositions for genome editing in non-dividing cells” (Salk Institute for Biological Studies, priority 2016, dated 2024).

Tested on: HEK293 GFP-correction line
Test: Targeted gene modification by HDR/HITI in HEK293 GFP-correction line
Format: cell-based
Details: NU7026 30 μM
Excerpt: Generation of HEK293 GFP-correction line. To assess the efficiency of targeted gene modification by HDR and HITI in dividing cells, a mutated GFP gene-based reporter system was established in HEK293. Briefly, pEGIP*35 was co-transfected with pMDLg/pRRE, pRSV-Rev and pMD2.G, packaged and purified as lentiviral vectors according to a published protocol Kutner, R. H., Zhang, X.-Y. & Reiser, J. Production, concentration and titration of pseudotyped HIV-1-based lentiviral vectors. Nature Protocols 4, 495-505 (2009). HEK293 cells were transduced in suspension with lentiviral EGIP*35 vector and 4 μg/ml polybrene for 1 h. After brief centrifugation to remove any residual lentiviral vector, the cells were seeded in 100 mm dishes. Three days after transduction, puromycin (1-2 μg/ml; Invitrogen) was added to the medium. After 10 days, single colonies were individually picked up and expanded as HEK293 GFP-correction line.
Transfection of in vitro cultured cells. […]
Existing methods were improved for more robust NHEJ-based targeted knock-in. […] The efficiencies of targeted gene replacement via HDR and homology-independent targeted integration (HITI) were determined by GFP and mCherry signals respectively (FIG. 1A). […]

Compound: O=c1cc(N2CCOCC2)oc2c1ccc1ccccc12 [NU7026]
- effect of NHEJ inhibitor on efficiency of HITI: significantly decreased
